Read-outs that look alike come from different tables or passages of the source.
Test system: human dermal papilla cells
Assay: cells
Conditions: Human dermal papilla cell, read-out: viability of human dermal papilla cells
Experimental: Human follicle dermal papilla cells were purchased from PromoCell Co., and a human follicle dermal papilla cell growth medium containing fetal calf serum, bovine pituitary extract, basic fibroblast growth factor and insulin was used and cultured at 37° C. and 5% CO2 incubator.
When the cultured human dermal papilla cells were dispensed in a 48 well plate at 1 × 10^4 cell/mL, and when the amount reached 80% or more, the extract of Example was treated at the concentrations shown in Table 2 below. The positive control group was treated with minoxidil at concentrations of 10 and 50 µM. After culturing the cells for 24, 48, and 72 hours, 200 µL of a 0.5 mg/mL solution of MTT diluted in the medium were added and cultured at 37° C. for 4 hours. After removing the solution, adding 200 µL of DMSO, and transferring 100 µL to a 96 well plate, absorbance was measured at 585 nm using a microplate reader. The average absorbance value for each sample group was obtained, and the cell viability was evaluated by comparing the average absorbance value with the absorbance value of the control group.

## Nc1cc(N2CCCCC2)nc(N)[n+]1[O-] [Positive control group, minoxidil]
24 h
  viability at 10 µM: 104%
  viability at 50 µM: 107%
48 h
  viability at 10 µM: 107%
  viability at 50 µM: 116%
72 h
  viability at 10 µM: 115%
  viability at 50 µM: 125%
